# Assay results from a melting point compilation (Tetko et al.; mined from patent text by program, amines drawn as free bases though some values may be those of a salt).
row,Structure (SMILES),melting point
1,N=c1n(Cc2ccc(Cl)cc2)c2ccc(Cl)cc2n1Cc1ccc(Cl)cc1,175 to 177 °C
2,CC1(C)Oc2cc3nonc3cc2C(N2CCC(=O)CC2=O)C1O (stereo not given),220 to 223 °C
3,Clc1ccc2nc(CN3CCc4ccccc4C3)[nH]c2c1,204 to 206 °C
4,CC(C)CNc1nc(-c2ccccc2)c(Cl)n2c(-c3ccc(C(=O)NC4CC4)cc3)cnc12,180 °C
5,O=C(Cl)c1c(Cl)c(Cl)c(Cl)c(Cl)c1CCl,77 to 78 °C
6,CC(=O)NCC(C)(C)c1ccc(C(=O)Nc2cn3cc(Cl)ccc3n2)cc1,220 to 222 °C
7,Cc1cc2ccccc2n1-c1ccc(OCc2ccccc2)cc1,95 to 96 °C
8,CS(=O)(=O)OCCCn1cc(C2=C(c3ccccc3[N+](=O)[O-])C(=O)NC2=O)c2ccccc21,177 to 178 °C
9,CCOC(=O)C(C#N)=NOC(=O)OCC(C)C,60 to 62 °C
10,CC(=NNC(=O)c1ccc2n1Cc1ccccc1N(C(=O)c1ccc(C3CCCCC3)cc1)C2)N(C)C,164 to 175 °C
11,O=C(OCCn1ccnc1)c1ccccc1O,74 to 75 °C
12,Cc1cc(S(=O)(=O)c2ccc(N)cc2)cc(Br)n1,189 to 191 °C
13,Cc1cccc2c1nc(COc1ccc(Cl)cc1)n2CCC(C)CNCc1ccccc1 (racemic),84.5 to 87 °C
14,O=C(N[C@H](Cc1ccc(Oc2ccccc2)cc1)[C@@H](O)c1ccc(F)cc1)c1ccc(F)c2ccccc12 (racemic),104 to 105 °C
15,Cc1cc(C)n(C(=O)CNS(=O)(=O)c2ccc(C3CCCCC3)cc2)n1,138 °C
16,COc1ccc(OCCCCCN2CCN(Sc3ccc[nH]3)CC2)cc1,83 to 85 °C
17,FC(F)(F)c1cc2ncccc2cc1Cl,137 to 139 °C
18,O=C1N(c2ccccc2Br)Cc2cnc(Nc3ccccc3)nc2N1c1ccc(CO)cc1,129 to 132 °C
19,C=CCn1nc(-c2cc(C(C)(C)C)c(O)c(C(C)(C)C)c2)c2cccnc21,120 to 123 °C
20,COC(=O)c1csc(-c2ccc(OC)cc2)n1,67 to 79 °C
21,CN1CCN(C2=NC(=O)C(=Cc3cccc(-c4ccc(O)c(C56CC7CC(CC(C7)C5)C6)c4)c3)S2)CC1,291 to 294 °C
22,CCC(C(=O)OC)[C@@H](C)O (stereo not given in full),72.4 to 73.3 °C
23,CC(=O)SCSc1c[nH]nn1,88 to 89 °C
24,NC(=O)N(O)CCOc1ccc2c(c1)CCN(CCCc1ccc(F)cc1)C2=O,138 to 140 °C
25,OC1C(COCC(F)(F)F)OC(n2cnc3c(NC4CCCC4)ncnc32)C1O (stereo not given),74 to 76 °C

row,Structure (SMILES),melting point
1,CN(C)C(=O)Oc1cccc(-c2cc(=O)c3cc(N(C)C)ccc3o2)c1,167 to 168 °C
2,O=CCOc1ccc(Oc2ccccc2)cc1,79 to 81 °C
3,CCOC(=O)Cn1c(=O)c(=O)[nH]c2cc(C(F)(F)F)c(-n3ccc(C=NO)c3)cc21,> 250 °C
4,N#Cc1cnn2c1NCC=C2c1cc(Cl)ccc1Cl,222 to 223 °C
5,COc1ccc(C(=O)Nc2ccc(-c3ncc(-c4ccc(NC(=O)C5CCCCCC5)cc4)[nH]3)cc2)cc1,311 to 313 °C
6,CCOC(=O)Cc1cc(O)n[nH]1,114 to 117 °C
7,CC(C)C[C@@H](C(=O)N1CCN(C(c2ccc(F)cc2)c2ccc(F)cc2)CC1)N(Cc1ccc(OC(C)(C)C)cc1)Cc1ccc(OC(C)(C)C)cc1,62 to 67 °C
8,O=c1oc2ccccc2s1,25.8 to 27 °C
9,O=CC=C[C@@H]1O[C@H]1C#CC#CC#Cc1ccccc1 (relative stereo),91 to 92.5 °C
10,CCOC(=O)C(C)(C)Oc1ccc(-c2ccc(CCNC(=O)c3cccc(C)c3)cc2)cc1,< 20 °C
11,Cc1ccc(-c2ccc3c(c2)C=C(C(=O)Nc2ccc(CNc4ccccc4)cc2)CCO3)cc1,157 to 158 °C
12,CCc1nc(N)nc(N)c1-c1ccc(NCc2ccc(Cl)c(Cl)c2)c([N+](=O)[O-])c1,244 to 246 °C
13,CSc1sc(-c2nccs2)c2c1-c1oncc1CC2,165 to 168 °C
14,O=C1CCN(CC(c2ccccc2)c2ccccc2)CC1,140 to 142 °C
15,COC(=O)c1cc2c(nc1C)C(=O)CCC2,180 to 181 °C
16,O=c1[nH]c2cc(Cl)c(Cl)c([N+](=O)[O-])c2[nH]c1=O,347 to 348 °C
17,CCOC(=O)CCCn1cc(C(=O)c2ccc(N)c(OCCCCl)c2)c2ccccc21,93 to 95 °C
18,CC1(CC(=O)O)OCCC2=C1Cc1ccccc12 (stereo not given),179 to 180 °C
19,NS(=O)(=O)c1ccc(C#Cc2cnc3c(C(F)(F)F)cc(-c4ccc(C(F)(F)F)cc4)cn23)cc1,278 to 280 °C
20,CCOC(=O)c1cnn(-c2ccc(Cl)cc2)c1,127 to 128 °C
21,CC(=O)NC1CSC(=S)N(c2cccc(F)c2)C1=O (stereo not given),176 to 177 °C
22,CCOc1ccc2c(c1)nc1n2CC(c2ccccn2)S1=O (stereo not given),145 to 147 °C
23,Cc1ccc(S(=O)(=O)CCC2OCCO2)cc1,78 to 80 °C
24,COCC(=O)C1CCC2C3CCC4CC(=O)CCC4(C)C3CCC12C (stereo not given),156 °C
25,O=C(CCCC1CCCCC1)C1=C(O)CSC1=O,45 to 50 °C

# Results, then the compound that gave them:
row,melting point,Structure (SMILES)
1,113 to 115 °C,COC(=O)CCC(=O)c1ccc(Cl)c(S(N)(=O)=O)c1
2,> 220 °C,c1coc(-c2cnc3[nH]c4ccccc4c3c2)c1
3,201 to 204 °C,Cc1c(C(=O)N2Cc3ccccc3Cc3ccccc32)csc1C(N)=O
4,97 °C,O=[N+]([O-])c1cc(Cl)c(Cl)cc1NCCCO
5,124 to 125 °C,CCCSc1cccc(-c2nc(=O)c3ccccc3s2)n1
6,166 to 168 °C,O=C(O)Cc1ccc(Br)cc1[N+](=O)[O-]
7,161 to 163 °C,COc1nc(C)cc(C(=O)O)n1
8,85 to 86 °C,CC(C)=CCN(c1ccc(OCc2ccccc2)cc1)C1CCN(C(=O)C2CN(C)CCN2CCC(C)C)CC1 (stereo not given)
9,163 °C,CCCCCCCCCCCC(=O)N[C@@H](C)C(=O)N[C@H](CCC(=O)O)C(N)=O
10,274 to 278 °C,Cc1cc(F)c(Nc2ncnc3cc(O)ccc23)cc1O
11,203 to 206 °C,O=c1c(-c2ccccc2Cl)cc2cnc(NC3C4CN(Cc5ccccc5)CC43)nc2n1C1CCNC1 (stereo not given)
12,165 to 166 °C,CC(C)(C)OC(=O)C(C1NC(C(=O)OCc2ccccc2)C2(CCCCC2)S1)N1C(=O)c2ccccc2C1=O (stereo not given)
13,93 to 95 °C,COC(=O)c1cn(CCO)nc1[N+](=O)[O-]
14,83 to 84 °C,COC(=O)COc1cccc2c(CNS(=O)(=O)CCOc3ccccc3)coc12
15,185 to 187 °C,COc1ccc(-c2ccc3ccc(NC(=O)c4ccccc4)nc3n2)cc1
16,198 to 200 °C,CC(=O)Nc1ccc(C(=O)N2CCOCC2)cc1N
17,129 °C,CC(C)c1nn(-c2ccc(Cl)cc2NO)c(=O)o1
18,225 °C,Cc1ccc(-c2coc3c(O)c(O)ccc3c2=O)cc1
19,193 °C,CN(C)CCNS(=O)(=O)c1cccc([N+](=O)[O-])c1C(=O)O
20,148 to 150 °C,CC(=O)C#CC1CCC2C3CCC4CC(O)CCC4(C)C3CCC12C (stereo not given)
21,144 to 145 °C,Cc1csc2ncc(C(O)CCc3ccccc3)n12 (stereo not given)
22,83 to 84 °C,Fc1ccc(-c2cc(CCC#Cc3ccccn3)on2)cc1
23,183 to 185 °C,Cn1cccc1-c1nc2cc(N)ccc2o1
24,175 to 176 °C,Nc1cc(=O)n(Cc2cc(Cl)cc(Cl)c2)[nH]1
25,226 to 228 °C,CCOc1nnc2c3ccc(Cl)cc3c(-c3ccccc3)nn12

row,melting point,Structure (SMILES)
1,110 to 112 °C,O=S(=O)(Nc1ccc2c(OCc3cccc(-c4ccc(F)cc4)c3)cccc2c1)C(F)(F)F
2,137 to 139 °C,Brc1cccc2[nH]cc(Sc3ccccc3)c12
3,183 to 184 °C,FC(F)(F)c1nnc2ccc(-c3ccccc3)nn12
4,177 °C,O=c1[nH]c2ccccc2n1CCN1CCC(Nc2nc3cccnc3n2CCOCCO)CC1
5,90 to 92 °C,CCOC(=O)Nc1cc([N+](=O)[O-])ccc1F
6,68 to 70 °C,CCc1nc(Cl)c(C(N)=O)n1Cc1ccc2oc(-c3ccccc3NS(=O)(=O)C(F)(F)F)c(Br)c2c1
7,115 to 120 °C,COCCN1CCc2cc(OC)c(O)cc2C1C1(c2ccccc2Cl)CC1 (stereo not given)
8,195 to 198 °C,Cc1cc2cc(CN3CCCC3)cnc2cc1NC(=O)c1ccc(-c2ccc(Cl)cc2)cc1F
9,69 to 74 °C,OCCCCCCOc1ccccc1
10,140 to 142 °C,COc1ccc(-n2c3ccccc3c3cc(C(C#N)=C(C#N)c4cc(F)cc(F)c4)ccc32)cc1
11,156 to 158 °C,COc1ccc(OC)c(S(=O)(=O)n2c(COC(C)(C)C(=O)O)cc3cc(Cl)ccc32)c1
12,164 to 166 °C,COc1ccc(-c2cnc3cc4cnn(CCOC(C)=O)c4cc3n2)cc1F
13,114 to 115 °C,C(=CCN(Cc1ccccc1)Cc1ccccc1)CN(Cc1ccccc1)Cc1ccccc1
14,184 to 188 °C,O=C(CC(=O)C(CF)CF)c1ccc(OCc2ccccc2)cc1
15,60 to 62 °C,CCCCOC(=O)c1nc(Cl)c2cc(OC(C)C)ccc2c1O
16,270 to 272 °C,Cc1cc(C)cc(-c2nc(NC(=O)C(C)C)sc2-c2ccncc2)c1
17,201 to 202 °C,CC(=Cc1c[nH]c2ccc(CNS(C)(=O)=O)cc12)[N+](=O)[O-]
18,162 to 163 °C,O=C1c2ccccc2C(=O)N1CC(Br)(CBr)c1ccccc1 (stereo not given)
19,250 to 252 °C,CNC(=O)c1ccc(Nc2cc(-n3ccc(C(F)(F)F)n3)c3ccccc3n2)cc1
20,160 to 162 °C,CCOC(=O)C(C(=O)OCC)c1ccc(NC(=O)c2cc3c(n(CC4CCCCC4)c2=O)CCCCCC3)c(C(F)(F)F)c1
21,62 to 64 °C,O=C1c2ccc(CCCCc3ccccc3)cc2CCN1OC1CCCCO1 (stereo not given)
22,154 °C,"O=C(O)c1ccn2c1CSC2c1cccnc1 (single isomer, unassigned; (+))"
23,160 to 162 °C,Cc1c(NC(=O)c2ccc(OC[C@@H]3CCCO3)cc2)ccc2c1cc(CNCC(C)(C)O)n2C
24,187 to 189 °C,CN(c1ccc(Cl)cc1)S(=O)(=O)c1cccc(NC(=O)c2ccc(Br)cc2)c1
25,73.5 to 75 °C,CON=C(C(C)=O)C(=O)N(C)C
